By Cmax is commonly meant the highest concentration seen after dosing. Broadly, the AUC(0-t) is exposure summed from dosing to a finite time, without extrapolation to infinity. For orientation: MRT inf means the average time that molecules of a dose stay in the body. The term AUC(0-inf) denotes total exposure, with the tail of the curve extrapolated. High values mean more exposure, low ones less exposure. As a reminder, the Tmax is the time from dosing to the highest level. The AUC is concentration integrated over time. The term IC50 denotes the point on the concentration scale where inhibition reaches its midpoint. One may read the MRT last as a mean duration of stay, worked out from the concentration-time curve. The term half-life denotes the time in which the quantity being followed falls by half.

SMILES strings stand for the structures. Activity calls are given as the source filed them. The rule behind the calls is not given here.

Consider one compound from ChEMBL document CHEMBL5500404, “Discovery and Development of NLRP3 Inhibitors Targeting the LRR Domain to Disrupt NLRP3-NEK7 Interaction for the Treatment of Rheumatoid Arthritis” (J Med Chem, 2024).

Series [1] is described as follows: Cmax in Sprague-Dawley rat at 20 mg/kg, IG measured upto 1440 mins by LC-MS/MS analysis. The conditions noted are these: in vivo, po. The series is classed as ADME, organism-based.
The nature of series [2]: AUC (0 to t) in Sprague-Dawley rat at 20 mg/kg, ip measured upto 720 mins by LC-MS/MS analysis. The series is classed as ADME, organism-based. The note with it: in vivo.
Series [3] in a line: MRT (0 to infinity) in Sprague-Dawley rat at 20 mg/kg, ip measured upto 720 mins by LC-MS/MS analysis. The series is classed as ADME, organism-based. The note with it: in vivo.
Series [4] can be described thus: AUC (0 to infinity) in Sprague-Dawley rat at 20 mg/kg, IG measured upto 1440 mins by LC-MS/MS analysis. The conditions noted are these: in vivo, po. The series is classed as ADME, organism-based.
A short description of series [5]: Tmax in Sprague-Dawley rat at 20 mg/kg, IG measured upto 1440 mins by LC-MS/MS analysis. The note with it: in vivo, po. It counts as ADME, organism-based.
Series [6] is described as follows: AUC (0 to infinity) in Sprague-Dawley rat at 20 mg/kg, ip measured upto 720 mins by LC-MS/MS analysis. The note with it: in vivo, 12 h. The series is classed as ADME, organism-based.
In series [7] the test system is Rattus norvegicus. Put plainly: Anti-inflammatory activity against complete Freund's adjuvant (CFA)-induced arthritis rat model assessed as decrease in thymus index at 20 to 80 mg/kg, ip treated after 17 days of CFA challenge measured after 18 days (day 17 to 34) relative to model group. The note with it: dose 20-80 mg/kg, time 18.0 day. It counts as functional, organism-based.

Series [8] deals with Rattus norvegicus. Put plainly: Anti-inflammatory activity against complete Freund's adjuvant (CFA)-induced arthritis rat model assessed as reduction in NLRP3 in rat synovium from the left rear ankle at 20 to 80 mg/kg, ip treated after 17 days of CFA challenge measured after 18 days (day 17 to 34) by immunofluorescence based assay relative to model group. The note with it: dose 20-80 mg/kg, time 18.0 day. It counts as functional, organism-based.

In series [9] the test system is Rattus norvegicus. Nature of the series: Anti-inflammatory activity against complete Freund's adjuvant (CFA)-induced arthritis rat model assessed as reduction in NLRP3 in rat synovium from the left rear ankle at 20 to 80 mg/kg, ip treated after 17 days of CFA challenge measured after 18 days (day 17 to 34) by immunohistochemistry based assay relative to model group. It counts as functional, organism-based. The note with it: dose 20-80 mg/kg, time 18.0 day.

Series [10] has as its system Rattus norvegicus. Put plainly: Anti-inflammatory activity against complete Freund's adjuvant (CFA)-induced arthritis rat model assessed as recovery in degree of swelling in left hind paw at 20 to 80 mg/kg, ip treated after 17 days of CFA challenge measured after 18 days (day 17 to 34) relative to control. It counts as functional, organism-based. The conditions noted are these: dose 20-80 mg/kg, time 18.0 day.

Series [11] is described as follows: MRT (0 to infinity) in Sprague-Dawley rat at 20 mg/kg, IG measured upto 1440 mins by LC-MS/MS analysis. The series is classed as ADME, organism-based. The note with it: in vivo, po.
In series [12] the test system is Rattus norvegicus. Put plainly: Anti-inflammatory activity against complete Freund's adjuvant (CFA)-induced arthritis rat model assessed as reduction in IL-1beta in rat synovium from the left rear ankle at 20 to 80 mg/kg, ip treated after 17 days of CFA challenge measured after 18 days (day 17 to 34) by immunofluorescence based assay relative to model group. It counts as functional, organism-based. The note with it: dose 20-80 mg/kg, time 18.0 day.

In series [13] the target is T1, NACHT, LRR and PYD domains-containing protein 1 (Homo sapiens) (UniProt Q9C000).
T1 sequence (whole entry): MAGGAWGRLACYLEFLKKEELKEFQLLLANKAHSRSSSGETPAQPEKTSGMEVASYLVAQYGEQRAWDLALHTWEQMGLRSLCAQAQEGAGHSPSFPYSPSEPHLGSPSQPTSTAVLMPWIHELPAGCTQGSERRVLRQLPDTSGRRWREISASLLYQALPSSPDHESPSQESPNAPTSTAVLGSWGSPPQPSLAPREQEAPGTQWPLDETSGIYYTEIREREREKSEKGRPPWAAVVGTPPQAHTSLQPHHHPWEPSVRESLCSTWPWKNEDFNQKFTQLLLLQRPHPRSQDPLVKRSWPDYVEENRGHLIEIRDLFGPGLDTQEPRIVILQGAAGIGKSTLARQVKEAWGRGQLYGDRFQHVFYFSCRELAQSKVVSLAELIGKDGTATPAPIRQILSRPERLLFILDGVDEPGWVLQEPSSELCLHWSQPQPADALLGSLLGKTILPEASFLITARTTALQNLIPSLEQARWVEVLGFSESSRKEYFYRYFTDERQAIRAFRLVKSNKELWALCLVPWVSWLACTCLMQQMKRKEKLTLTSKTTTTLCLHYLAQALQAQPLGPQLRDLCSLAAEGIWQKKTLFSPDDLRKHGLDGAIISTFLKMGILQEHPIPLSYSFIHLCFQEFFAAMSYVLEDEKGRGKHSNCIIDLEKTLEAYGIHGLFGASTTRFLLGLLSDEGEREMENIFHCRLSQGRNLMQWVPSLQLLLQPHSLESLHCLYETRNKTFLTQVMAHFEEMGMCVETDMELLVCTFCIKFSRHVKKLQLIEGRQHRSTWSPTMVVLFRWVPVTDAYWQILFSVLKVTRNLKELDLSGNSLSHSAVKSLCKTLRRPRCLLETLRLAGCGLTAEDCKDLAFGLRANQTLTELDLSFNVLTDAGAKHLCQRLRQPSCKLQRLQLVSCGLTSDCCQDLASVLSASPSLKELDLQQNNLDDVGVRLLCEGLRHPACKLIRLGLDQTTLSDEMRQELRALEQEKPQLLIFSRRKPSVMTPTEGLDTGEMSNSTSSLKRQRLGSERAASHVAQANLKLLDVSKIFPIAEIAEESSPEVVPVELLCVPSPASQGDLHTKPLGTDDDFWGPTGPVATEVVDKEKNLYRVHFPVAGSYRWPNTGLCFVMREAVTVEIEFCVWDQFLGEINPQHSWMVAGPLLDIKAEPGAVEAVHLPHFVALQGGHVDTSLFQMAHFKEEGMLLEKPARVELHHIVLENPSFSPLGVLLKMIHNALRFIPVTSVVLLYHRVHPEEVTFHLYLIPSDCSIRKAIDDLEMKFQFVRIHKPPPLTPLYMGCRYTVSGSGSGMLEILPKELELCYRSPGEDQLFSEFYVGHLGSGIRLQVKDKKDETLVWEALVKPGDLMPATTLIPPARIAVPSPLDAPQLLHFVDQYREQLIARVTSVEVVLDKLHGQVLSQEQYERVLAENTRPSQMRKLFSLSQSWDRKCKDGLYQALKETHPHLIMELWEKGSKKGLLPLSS
Nature of the series: Inhibition of NLRP1 inflammasome in Val-boroPro-induced human THP-M cells assessed as inhibition of IL-1beta level at 20 to 60 uM pretreated for 24 hrs followed by stimulated with LPS by ELISA. It counts as cell-based. The conditions noted are these: dose 20-60 µM.

Series [14] is described as follows: Cytotoxicity against human THP-1 cells assessed as cellular proliferation inhibition measured after 48 hrs by MTT assay. It counts as toxicity, cell-based. Background: Tetrazolium dyes change colour on reduction, which living cells bring about.
Series [15] is described as follows: Apparent volume of distribution during terminal phase in Sprague-Dawley rat at 20 mg/kg, IG measured upto 1440 mins by LC-MS/MS analysis. The series is classed as ADME, organism-based. The note with it: in vivo, po, read-out: Vz/F.
A short description of series [16]: AUC (0 to t) in Sprague-Dawley rat at 20 mg/kg, IG measured upto 1440 mins by LC-MS/MS analysis. The series is classed as ADME, organism-based. The conditions noted are these: in vivo, po.
The nature of series [17]: MRT (0 to t) in Sprague-Dawley rat at 20 mg/kg, IG measured upto 1440 mins by LC-MS/MS analysis. The series is classed as ADME, organism-based. The conditions noted are these: in vivo, po.
A short description of series [18]: Half life in Sprague-Dawley rat at 20 mg/kg, IG measured upto 1440 mins by LC-MS/MS analysis. The series is classed as ADME, organism-based. The note with it: in vivo, po.

Compound `COCCCNC(=O)c1ccc(Cn2c(SCC3CCCCC3)nc3ccncc32)cc1` had a Cmax in [1] of 0.448 µg/mL. This compound showed an AUC(0-t) at 12 h in [2] of 1.86 µg·h/mL. For the same compound, the MRT inf in [3] was 0.742 h; in [11] it was 2.7 h. Further, the AUC(0-inf) in [4] is 0.867 µg·h/mL. In addition, the Tmax in [5] was 0.278 h. The compound further came in with an exposure (AUC) in series [6] of 112685 ng·min/mL. The outcome with Rattus norvegicus [7], with Rattus norvegicus [8], in the series on Rattus norvegicus [9], in the series with Rattus norvegicus [10] and in the series with Rattus norvegicus [12] was Active. For the same compound, in series [13], the inhibition entry was “inactive”. In addition, the half-inhibitory concentration (IC50) at 48 h in series [14] is more than 100 µM. In addition, the Vd/F in series [15] came out at 73.4 L/kg. This compound showed an AUC(0-t) at 24 h in [16] of 0.837 µg·h/mL. In series [17], this compound had an MRT last at 24 h of 2.31 h. Besides, the half-life in series [18] stood at 2.14 h.
